According to paper PMC12150326 (The Journal of Organic Chemistry, 2025):
Like-named read-outs stand apart in the source and are kept apart here.

Columns and labels:
Type in all cases: cell-based, human
A549 = assay: Cell-growth inhibition (CellTiter); settings: read-out: Cell Growth Inhibition GI50 ± SE
Method: (§1) Inhibition of cell growth was determined by using standard procedures. Cell lines were obtained from the NCI anticancer drug screen and maintained in DMEM medium supplemented with 10% fetal bovine serum. Growing cells were exposed to serial dilutions of each compound for 3 days. Cell growth was determined with CellTiter Assay Reagent (Promega), and growth parameters, including inhibition of growth, were measured by using the methods specified by the manufacturer.

M14 = assay: Cell-growth inhibition (CellTiter); settings: read-out: Cell Growth Inhibition GI50 ± SE
Method: as §1

PC3 = assay: Cell-growth inhibition (CellTiter); settings: read-out: Cell Growth Inhibition GI50 ± SE
Method: as §1

A498 = system: A498
Method: (§2) (aR)-6, (aS)-6, (aS)-iso -6, and (aR)-iso -6 were submitted to the 60 Cell Screen panel and evaluated at 5 doses (100 μM, 10 μM, 1 μM, 0.1 μM, and 0.01 μM). […] The complete report from this submission is available at the publisher’s Web site as a separate Supporting Information file. For COMPARE analysis, TGI levels of response for (aR)-DM-MTC (6) and (aS)-iso-DM-MTC were compared to those of several established tubulin inhibitors previously tested in the NCI-60 screen.

A549/ATCC = system: A549/ATCC
Method: as §2

ACHN = system: ACHN
Method: as §2

COLO 205 = system: COLO 205
Method: as §2

EKVX = system: EKVX
Method: as §2

HCT-116 = system: HCT-116
Method: as §2

HL-60(TB) = system: HL-60(TB)
Method: as §2

HOP-62 = system: HOP-62
Method: as §2

HOP-92 = system: HOP-92
Method: as §2

HT29 = system: HT29
Method: as §2

IGROV1 = system: IGROV1
Method: as §2

MALME-3M = system: MALME-3M
Method: as §2

MCF7 = system: MCF7
Method: as §2

MDA-MB-468 = system: MDA-MB-468
Method: as §2

NCI 60 cell lines = system: NCI 60 cell lines
Method: as §2

NCI-H460 = system: NCI-H460
Method: as §2

NCI-H522 = system: NCI-H522
Method: as §2

OVCAR-4 = system: OVCAR-4
Method: as §2

PC-3 = system: PC-3
Method: as §2

SK-MEL-28 = system: SK-MEL-28
Method: as §2

SK-MEL-2 = system: SK-MEL-2
Method: as §2

SK-OV-3 = system: SK-OV-3
Method: as §2

SN12C = system: SN12C
Method: as §2

In the case of `COc1cc(C)c(-c2ccc(OC)c(=O)cc2C)c(OC)c1OC` (single isomer, unassigned) [(aR)-6], the GI50 (A549; A549, 3 days) is reported as 2.1 ± 0.1 µM, the GI50 (M14; M14, 3 days) is reported as 1.1 ± 0.2 µM and the GI50 (PC3; PC3, 3 days) is reported as 1.5 ± 0.1 µM. It also gave a Log10GI50 (A498) of -6.10 Molar, a Log10LC50 (A498) greater than -4.00 Molar and a Log10TGI (A498) of -5.34 Molar. It also gave a GI50 (A498; Homo sapiens) of 0.79 µM, a Log10GI50 (A498; listed as (aR)-DM-MTC) of -6.1 Molar and a Log10GI50 (A549/ATCC) of -5.42 Molar. For the same compound, the Log10LC50 (A549/ATCC) was greater than -4.00 Molar, the Log10TGI (A549/ATCC) was greater than -4.00 Molar and the GI50 (A549/ATCC; Homo sapiens) was 3.8 µM. For the same compound, the Log10GI50 (A549/ATCC; listed as (aR)-DM-MTC) was -5.42 Molar, the Log10GI50 (ACHN) was -5.27 Molar and the Log10LC50 (ACHN) was greater than -4.00 Molar. For the same compound, the Log10TGI (ACHN) was greater than -4.00 Molar, the GI50 (ACHN; Homo sapiens) was 5.37 µM and the Log10GI50 (ACHN; listed as (aR)-DM-MTC) was -5.27 Molar. The Log10GI50 (COLO 205) was -5.76 Molar, the Log10LC50 (COLO 205) was -4.74 Molar and the Log10TGI (COLO 205) was -5.35 Molar. For the same compound, the GI50 (COLO 205; Homo sapiens) was 1.74 µM, the Log10GI50 (COLO 205; listed as (aR)-DM-MTC) was -5.76 Molar and the Log10GI50 (EKVX) was -5.18 Molar. For the same compound, the Log10LC50 (EKVX) was greater than -4.00 Molar, the Log10TGI (EKVX) was greater than -4.00 Molar and the GI50 (EKVX; Homo sapiens) was 6.61 µM. It also gave a Log10GI50 (EKVX; listed as (aR)-DM-MTC) of -5.18 Molar, a Log10GI50 (HCT-116) of -5.71 Molar and a Log10LC50 (HCT-116) greater than -4.00 Molar. It also gave a Log10TGI (HCT-116) greater than -4.00 Molar, a GI50 (HCT-116; Homo sapiens) of 1.95 µM and a Log10GI50 (HCT-116; listed as (aR)-DM-MTC) of -5.71 Molar. For the same compound, the Log10GI50 (HL-60(TB)) was -6.16 Molar, the Log10LC50 (HL-60(TB)) was greater than -4.00 Molar and the Log10TGI (HL-60(TB)) was -5.10 Molar. For the same compound, the GI50 (HL-60(TB); Homo sapiens) was 0.69 µM, the Log10GI50 (HL-60(TB); listed as (aR)-DM-MTC) was -6.16 Molar and the Log10GI50 (HOP-62) was -5.42 Molar. For the same compound, the Log10LC50 (HOP-62) was greater than -4.00 Molar, the Log10TGI (HOP-62) was greater than -4.00 Molar and the GI50 (HOP-62; Homo sapiens) was 3.8 µM. The Log10GI50 (HOP-62; listed as (aR)-DM-MTC) was -5.42 Molar, the Log10GI50 (HOP-92) was -5.45 Molar and the Log10LC50 (HOP-92) was greater than -4.00 Molar. For the same compound, the Log10TGI (HOP-92) was greater than -4.00 Molar, the GI50 (HOP-92; Homo sapiens) was 3.55 µM and the Log10GI50 (HOP-92; listed as (aR)-DM-MTC) was -5.45 Molar. The Log10GI50 (HT29) was -5.73 Molar, the Log10LC50 (HT29) was greater than -4.00 Molar and the Log10TGI (HT29) was -5.02 Molar. The GI50 (HT29; Homo sapiens, HT-29) was 1.86 µM, the Log10GI50 (HT29; listed as (aR)-DM-MTC) was -5.73 Molar and the Log10GI50 (IGROV1) was -5.37 Molar. For the same compound, the Log10LC50 (IGROV1) was greater than -4.00 Molar, the Log10TGI (IGROV1) was greater than -4.00 Molar and the GI50 (IGROV1; Homo sapiens, IGROV-1) was 4.27 µM. The Log10GI50 (IGROV1; listed as (aR)-DM-MTC) was -5.37 Molar, the Log10LC50 (MALME-3M) was greater than -4.00 Molar and the Log10TGI (MALME-3M) was greater than -4.00 Molar. For the same compound, the Log10GI50 (MCF7) was -6.11 Molar, the Log10LC50 (MCF7) was greater than -4.00 Molar and the Log10TGI (MCF7) was greater than -4.00 Molar. It also gave a GI50 (MCF7; Homo sapiens) of 0.78 µM, a Log10GI50 (MCF7; listed as (aR)-DM-MTC) of -6.11 Molar and a Log10GI50 (MDA-MB-468) of -5.97 Molar. For the same compound, the Log10LC50 (MDA-MB-468) was greater than -4.00 Molar, the Log10TGI (MDA-MB-468) was greater than -4.00 Molar and the GI50 (MDA-MB-468; Homo sapiens) was 1.07 µM. The Log10GI50 (MDA-MB-468; listed as (aR)-DM-MTC) was -5.97 Molar, the “fold less potent than colchicine, growth inhibition” value (NCI 60 cell lines) was 10 to 50 fold and the selectivity range (NCI 60 cell lines; NCI-60, GI50 level) was 2.39 log units. For the same compound, the “Log10 Range at TGI” value (NCI 60 cell lines; NCI-60 cell line selectivity, listed as (aR)-DM-MTC (6)) was 2.13, the GI50 (NCI 60 cell lines; NCI-60 mean) was 2.4 µM and the “Mean TGI” value (NCI 60 cell lines; NCI-60 mean total growth inhibition) was 63 µM. The “Delta Log10GI50” value (NCI 60 cell lines; mean graph) was 0.95, the “Delta Log10LC50” value (NCI 60 cell lines; mean graph) was 0.73 and the “Delta Log10TGI” value (NCI 60 cell lines; mean graph) was 1.93. The “Range Log10GI50” value (NCI 60 cell lines; mean graph) was 2.39, the “Range Log10LC50” value (NCI 60 cell lines; mean graph) was 0.74 and the “Range Log10TGI” value (NCI 60 cell lines; mean graph) was 2.13. The “_MID Log10GI50” value (NCI 60 cell lines; mean graph midpoint) was -5.62 Molar, the “_MID Log10LC50” value (NCI 60 cell lines; mean graph midpoint) was -4.01 Molar and the “_MID Log10TGI” value (NCI 60 cell lines; mean graph midpoint) was -4.2 Molar. For the same compound, the Log10GI50 (NCI-H460) was -5.55 Molar, the Log10LC50 (NCI-H460) was greater than -4.00 Molar and the Log10TGI (NCI-H460) was greater than -4.00 Molar. For the same compound, the GI50 (NCI-H460; Homo sapiens) was 2.82 µM, the Log10GI50 (NCI-H460; listed as (aR)-DM-MTC) was -5.55 Molar and the Log10GI50 (NCI-H522) was -5.73 Molar. It also gave a Log10LC50 (NCI-H522) greater than -4.00 Molar, a Log10TGI (NCI-H522) of -5.27 Molar and a GI50 (NCI-H522; Homo sapiens) of 1.86 µM. The Log10GI50 (NCI-H522; listed as (aR)-DM-MTC) was -5.73 Molar, the Log10GI50 (OVCAR-4) was -4.35 Molar and the Log10LC50 (OVCAR-4) was greater than -4.00 Molar. The Log10TGI (OVCAR-4) was greater than -4.00 Molar, the GI50 (OVCAR-4; Homo sapiens) was 44.7 µM and the Log10GI50 (OVCAR-4; listed as (aR)-DM-MTC) was -4.35 Molar. The Log10GI50 (PC-3) was -5.64 Molar, the Log10LC50 (PC-3) was greater than -4.00 Molar and the Log10TGI (PC-3) was greater than -4.00 Molar. It also gave a GI50 (PC-3; Homo sapiens) of 2.29 µM, a Log10GI50 (PC-3; listed as (aR)-DM-MTC) of -5.64 Molar and a Log10LC50 (SK-MEL-28) greater than -4.00 Molar. For the same compound, the Log10TGI (SK-MEL-28) was greater than -4.00 Molar, the Log10GI50 (SK-MEL-2) was -6.05 Molar and the Log10LC50 (SK-MEL-2) was greater than -4.00 Molar. It also gave a Log10TGI (SK-MEL-2) of -5.18 Molar, a GI50 (SK-MEL-2; Homo sapiens) of 0.89 µM and a Log10GI50 (SK-MEL-2; listed as (aR)-DM-MTC) of -6.05 Molar. For the same compound, the Log10GI50 (SK-OV-3) was -5.59 Molar, the Log10LC50 (SK-OV-3) was greater than -4.00 Molar and the Log10TGI (SK-OV-3) was greater than -4.00 Molar. For the same compound, the GI50 (SK-OV-3; Homo sapiens) was 2.57 µM, the Log10GI50 (SK-OV-3; listed as (aR)-DM-MTC) was -5.59 Molar and the Log10GI50 (SN12C) was -5.46 Molar. The Log10LC50 (SN12C) was greater than -4.00 Molar, the Log10TGI (SN12C) was greater than -4.00 Molar and the GI50 (SN12C; Homo sapiens) was 3.47 µM. The Log10GI50 (SN12C; listed as (aR)-DM-MTC) was -5.46 Molar.

Compound `COc1cc2c(c(OC)c1OC)-c1ccc(OC)c(=O)cc1[C@@H](NC(C)=O)CC2` [Colchicine, (−)-Colchicine] has a GI50 (A549; Homo sapiens, A549, 72 h) of 0.04 µM, a GI50 (M14; Homo sapiens, M14, 72 h) of 0.01 ± 0.001 µM and a GI50 (PC3; Homo sapiens, PC-3, 72 h) of 0.02 ± 0.005 µM.
